Test results taken from patent US11001591B2, “TRAF 6 inhibitors” (HELMHOLTZ ZENTRUM MUENCHEN—DEUTSCHES FORSCHUNGSZENTRUM FÜR …, priority 2016, dated 2021).

Columns and labels:
[1] = target: T1, TRAF6 RZ1 protein (Homo sapiens, UniProt Q9Y4K3); assay: 2D-NMR (SOFAST-HMQC) binding; details: protein:compound 1:5
T1 construct: RING-Zincfinger1 (RZ1) domain (residues 50-159) of TRAF6 wildtype; GST (N, cleaved yes); made in house; host or cells: E. coli BL21 codon plus RIPL
Description: To determine whether the inhibitory compounds directly bind to TRAF6 rather than to Ubc13, 2D-NMR experiments were conducted. Untagged ^15N-labeled TRAF6 RZ1 protein (c=120 μM) and compound (c=20 mM) were incubated at a ratio of 1:5 in a 3 mm NMR tube for 10 minutes before spectra acquisition. To observe chemical shift perturbations upon compound addition, two-dimensional SOFAST-HMQC spectra were acquired. All measurements were performed using the Bruker Avance 600 MHz spectrometer.

[2] = target: T2, TRAF6 (Homo sapiens, UniProt Q9Y4K3); assay: In vitro ubiquitination assay (Western blot), TRAF6 with Ubc13/Uev1a; type: biochemical
T2 construct: made in house
T2 sequence (Q9Y4K3 50-159 limits assumed, species assumed): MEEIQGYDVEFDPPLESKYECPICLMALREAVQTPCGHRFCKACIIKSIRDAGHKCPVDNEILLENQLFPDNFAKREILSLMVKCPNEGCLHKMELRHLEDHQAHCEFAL
Description: The ability of TRAF6 to form K63-linked poly-ubiquitin chains in conjunction with Ubc13 was analyzed after compound treatment. Therefore, untagged TRAF6WT and TRAF6D57K, respectively were recombinantly purified. 0.125 μM of TRAF6 protein was pre-incubated with DMSO or compound in a total volume of 100 μL in K63 assay buffer (25 nM Tris-HCl pH 7.6; 250 nM MgCL2; […] creatine phosphate; 0.3 U/mL inorganic pyrophosphatase; 0.3 U/mL creatine phosphokinase) for 30 minutes at room temperature. Small aliquots for input samples were taken. A master mix containing 0.01 μM E1-activating enzyme (UBE1) (Boston Biochem), 0.2 μM E2-conjugating enzyme complex (Ubc13/Uev1a) (Boston Biochem), 1 mM ZnCl2, 2 mM ATP und 4 μM mono-ubiquitin (Boston Biochem) was added to the TRAF6 protein and the reaction mixture was incubated for 120 minutes at 37° C. The reaction was stopped by adding 4×SDS loading buffer and boiling at 95° C. for 5 minutes. The input samples were analyzed using the Pierce Silver Stain Kit (Thermo Fisher Scientific). Ubiquitination was detected in Western Blot analysis using an ubiquitin antibody.

[3] = target: T3, clAP1 (Homo sapiens, UniProt Q13490); assay: In vitro ubiquitination assay, clAP1; type: biochemical; details: RING E3 ligase; K63 chain formation
T3 construct: purchased Boston Biochem one of K-102, K-260, K-200B, K-220, K-240, K-270
T3 sequence (Q13490 whole entry): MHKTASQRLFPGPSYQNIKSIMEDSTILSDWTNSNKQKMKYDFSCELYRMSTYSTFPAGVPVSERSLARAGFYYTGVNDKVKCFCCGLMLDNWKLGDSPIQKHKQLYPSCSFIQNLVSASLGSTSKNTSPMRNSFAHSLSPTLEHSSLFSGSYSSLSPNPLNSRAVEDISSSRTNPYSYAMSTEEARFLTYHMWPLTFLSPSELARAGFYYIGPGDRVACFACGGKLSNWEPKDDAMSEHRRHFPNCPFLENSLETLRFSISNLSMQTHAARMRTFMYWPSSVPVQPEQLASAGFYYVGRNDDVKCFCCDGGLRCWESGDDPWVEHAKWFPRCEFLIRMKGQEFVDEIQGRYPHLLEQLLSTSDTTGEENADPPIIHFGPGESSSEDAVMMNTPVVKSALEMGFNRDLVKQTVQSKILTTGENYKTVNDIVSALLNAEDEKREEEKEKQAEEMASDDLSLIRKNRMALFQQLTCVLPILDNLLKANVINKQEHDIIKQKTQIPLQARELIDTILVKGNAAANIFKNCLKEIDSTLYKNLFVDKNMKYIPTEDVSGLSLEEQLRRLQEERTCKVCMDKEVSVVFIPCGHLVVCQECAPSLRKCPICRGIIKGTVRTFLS
Description: (§1) For analysis of clAP1, MDM2, TRIM63, RNF4, ITCH and E6AP mediated poly-ubiquitination, the respective ubiquitin ligase kit from Boston Biochem (K-102, K-260, K-200B, K-220, K-240 and K-270) was used. Here, reaction buffer, E1, E2 and E3 enzyme (and p53 substrate in case of MDM2) were mixed and pre-incubated with compound or DMSO for 5 minutes at room temperature before adding Mg^2+-ATP and mono-ubiquitin for reaction start. Ubiquitination was visualized by Western Blot analyses.

[4] = target: T4, E6AP (Homo sapiens, UniProt Q05086); assay: In vitro ubiquitination assay, E6AP; type: biochemical; details: HECT E3 ligase
T4 construct: purchased Boston Biochem one of K-102, K-260, K-200B, K-220, K-240, K-270
T4 sequence (Q05086 whole entry): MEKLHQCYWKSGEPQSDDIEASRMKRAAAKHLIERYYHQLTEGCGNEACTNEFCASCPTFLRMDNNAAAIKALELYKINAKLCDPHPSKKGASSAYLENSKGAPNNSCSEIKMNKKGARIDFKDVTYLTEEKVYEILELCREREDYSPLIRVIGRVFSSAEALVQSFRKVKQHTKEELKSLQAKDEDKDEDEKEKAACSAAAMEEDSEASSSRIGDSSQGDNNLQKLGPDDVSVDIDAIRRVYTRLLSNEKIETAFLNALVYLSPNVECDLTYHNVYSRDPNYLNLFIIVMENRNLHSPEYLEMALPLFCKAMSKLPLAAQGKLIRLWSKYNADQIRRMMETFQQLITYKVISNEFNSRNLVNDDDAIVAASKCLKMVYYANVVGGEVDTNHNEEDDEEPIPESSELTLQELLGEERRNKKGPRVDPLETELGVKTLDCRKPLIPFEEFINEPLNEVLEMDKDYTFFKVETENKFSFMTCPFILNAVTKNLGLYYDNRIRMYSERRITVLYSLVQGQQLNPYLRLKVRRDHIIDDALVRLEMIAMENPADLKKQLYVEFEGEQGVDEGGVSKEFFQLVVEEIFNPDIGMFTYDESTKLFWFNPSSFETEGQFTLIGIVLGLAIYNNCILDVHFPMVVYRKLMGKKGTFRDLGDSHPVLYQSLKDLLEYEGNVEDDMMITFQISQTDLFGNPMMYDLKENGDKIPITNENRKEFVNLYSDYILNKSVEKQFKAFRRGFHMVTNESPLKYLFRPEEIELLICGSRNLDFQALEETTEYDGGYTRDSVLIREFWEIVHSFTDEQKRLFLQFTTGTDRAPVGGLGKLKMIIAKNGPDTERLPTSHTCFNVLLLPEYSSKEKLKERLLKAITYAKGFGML
Description: as §1

[5] = tested on: Jurkat T-cells and U2OS cells; assay: Cell cycle assessment (propidium iodide); type: cell-based; details: 24 hours and 72 hours treatment
Description: For cell cycle staining, cells were seeded at 2×10^5 cells per sample and treated with compound or DMSO. After the indicated incubation time (24 or 72 hours), cells were fixed in 100% Ethanol and subsequently stained with the Propidium Iodide staining solution (0.1% Triton X-100; 20 μg/ml Propidium Iodide; 200 μg/ml RNAse A in PBS) for 40 min in the dark. The Propidium Iodide fluorescence was collected using the Attune Flow Cytometer (Thermo Fisher Scientific). Analysis was performed using the Single Cell analysis software FlowJo.

[6] = tested on: ICAM-1 and A20; assay: mRNA expression of NF-κB target genes in MEF cells; type: cell-based, mouse
Description: For MEF cells, 1.2×10^5 cells per sample were seeded, treated with compound for 6 hours and stimulated with either IL-1β or TNFα for 60 minutes. Jurkat T-cells and primary mouse CD4^+ T-cells were seeded at 2×10^5 cells per sample, also treated with compound for 6 hours and stimulated with PMA/lonomycin for 3 hours. RNA was isolated according to the manufacturer's protocol of the Qiagen RNeasy Kit (MEF cells) or the STRATEC INVITRAP® SPIN UNIVERSAL RNA MINI KIT (Jurkat T-cells). The isolation of mRNA from […] white adipose tissue from DIO mice was performed using TRIzol® Reagent according to manufacturer's instruction. To clear the isolated RNA from genomic DNA, samples (up to 5 μg RNA) were treated with RQ1 RNase-Free DNaseI (Promega) as described in the technical manual. For the reverse transcription of RNA into cDNA, the DNaseI digested RNA samples were processed using the SuperScript III First Strand cDNA Synthesis System (Invitrogen/ThermoFisher Scientific) following the manufacturer's protocol. […] For quantification of cDNA in the samples, the LightCylcer480 (Roche) and the KAPA SYBR FAST qPCR Kit were used. For relative quantification, the ΔΔCp method first described by Pfaffl (Pfaffl, M. W., A new mathematical model for relative quantification in real-time RT-PCR. Nucleic Acids Res, 2001. 29(9): p. e45) was applied.

[7] = Microsomal stability; type: in vitro ADME
Description: (§2) All ADME (plasma stability, plasma protein binding, microsomal stability, Log D, Caco-2 assay, CYP450 inhibition and hERG predictor assay) as well as pharmacokinetic studies (Tmax, Cmax, AUC0-240 min, Mean Residence Time, Elimination half life, Elimination rate constant, Volume of Distribution and Clearance) of C25-140 (compound 3) were conducted by Bienta Enamine Biology Services of Bienta/Enamine Ltd.

[8] = tested on: Caco-2 layer; assay: Caco-2 assay; type: in vitro ADME
Description: as §2

[9] = target: T5, hERG (Homo sapiens, UniProt Q12809); assay: hERG predictor assay; type: in vitro ADME
T5 construct: Bienta/Enamine Ltd. (contract lab)
T5 sequence (Q12809 whole entry): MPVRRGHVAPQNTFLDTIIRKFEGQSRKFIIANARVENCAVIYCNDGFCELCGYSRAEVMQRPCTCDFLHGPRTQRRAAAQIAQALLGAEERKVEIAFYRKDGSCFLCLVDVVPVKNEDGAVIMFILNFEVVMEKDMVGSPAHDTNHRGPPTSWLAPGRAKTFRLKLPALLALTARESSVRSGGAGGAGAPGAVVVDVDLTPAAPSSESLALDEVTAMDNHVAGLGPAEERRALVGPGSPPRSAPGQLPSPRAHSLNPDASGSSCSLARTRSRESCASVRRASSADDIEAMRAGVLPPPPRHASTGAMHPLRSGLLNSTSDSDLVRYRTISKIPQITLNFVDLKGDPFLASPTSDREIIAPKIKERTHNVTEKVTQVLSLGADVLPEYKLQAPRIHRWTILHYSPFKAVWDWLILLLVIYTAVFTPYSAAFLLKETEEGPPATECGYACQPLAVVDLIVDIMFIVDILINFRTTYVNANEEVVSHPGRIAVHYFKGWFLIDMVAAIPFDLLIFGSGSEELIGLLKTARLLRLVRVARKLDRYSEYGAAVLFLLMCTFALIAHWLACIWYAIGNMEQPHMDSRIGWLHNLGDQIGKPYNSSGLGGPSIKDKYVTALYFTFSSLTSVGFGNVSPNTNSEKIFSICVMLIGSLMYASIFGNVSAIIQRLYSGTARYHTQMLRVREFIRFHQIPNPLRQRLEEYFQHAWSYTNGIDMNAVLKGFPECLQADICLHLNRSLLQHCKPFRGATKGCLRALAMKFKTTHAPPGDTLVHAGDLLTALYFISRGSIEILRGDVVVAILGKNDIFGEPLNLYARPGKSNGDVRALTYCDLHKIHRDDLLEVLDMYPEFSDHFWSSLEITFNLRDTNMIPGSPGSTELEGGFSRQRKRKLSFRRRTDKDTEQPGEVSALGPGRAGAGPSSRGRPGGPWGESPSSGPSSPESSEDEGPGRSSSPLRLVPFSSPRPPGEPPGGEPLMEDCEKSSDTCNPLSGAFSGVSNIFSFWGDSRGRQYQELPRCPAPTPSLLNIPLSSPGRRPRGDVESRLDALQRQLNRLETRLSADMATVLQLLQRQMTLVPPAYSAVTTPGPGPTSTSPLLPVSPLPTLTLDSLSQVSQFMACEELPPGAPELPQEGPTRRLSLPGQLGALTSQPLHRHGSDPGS
Description: as §2

[10] = tested on: 78 oncological cell lines and control cell lines HS-5 and MCF 10A; assay: Omniscreen cancer cell line panel, CellTiter-Glo; type: cell-based; details: nine concentrations, top 80 μM, 72 hours
Description: The effect of C25-140 on cell viability of 80 cancer cell lines using the CellTiter-Glo luminescent cell viability assay was conducted at CrownBioscience Inc. at the testing facility in Beijing. Here, 80 selected cell lines were cultured in media supplemented with 10-15% FBS, in the temperature of 37° C., 5% CO2 and 95% humidity. Culture medium was purchased from GIBCO or Sigma, USA. The cells were treated with C25-140 in 9 dose levels starting at 80 μM with 3.16-fold serial dilutions. Cisplatin served as a reference control and started with a top working concentration of 100 μM. Test samples were incubated for 72 hours and cell viability was measured by the CellTiter-Glo assay.

T1 sequence (Q9Y4K3 50-159): as the sequence (Q9Y4K3 50-159 limits assumed, species assumed) above

## Cc1nn(-c2ccc3nnc(C)n3n2)c(C)c1CCC(=O)N1CCC(Cc2ccccc2)CC1 [Compound 3, 1-(4-benzylpiperidin-1-yl)-3-(3,5-dimethyl-1-(3-methyl-[1,2,4]triazolo[4,3-b]pyridazin-6-yl)-1H-pyrazol-4-yl)propan-1-one]
[1]
  direct binding to TRAF6 (NMR peak shifts): directly binds
[2]
  TRAF6 E3 ligase activity to form poly-ubiquitin chains: dose-dependently diminished
[3]
  auto-ubiquitination of clAP1: dose-dependently diminished
[4]
  S5A ubiquitination by E6AP: not affected
[5]
  cell cycle progression: not impaired
[6]
  IL-1β-induced target gene expression (ICAM-1, A20 mRNA): diminished
[6]; TNFα
  TNFα induced NF-κB target gene expression (ICAM-1, A20 mRNA): also affected
[7]
  microsomal stability: stable
[8]
  Caco-2 permeability: good penetration
[9]
  hERG inhibition: does not very much inhibit hERG
[10]
  viability of cancer cell lines: major effect is on cancer cells of blood origin
  viability of control cell lines HS-5 and MCF 10A: not affected at all
